This note sets out measurements from patent US10501518B2 (priority 2013, dated 2019).

Starred links: 1 amine or outer side, 2 acyl side, 3 side chain; linkers in the order of their positions; H or OH if unused. Non-standard residues stand in square brackets, D forms with d. Residues, ends and D or L forms follow the SMILES beside them. *: point of attachment. NH(1S,2S-2-CONH2-cPent) = NC(=O)[C@H]1CCC[C@@H]1N*; X12 = O=C([C@H]1CCC[C@@H]1N[*:1])[*:2]; X13 = O=C([C@H]1CNC[C@@H]1N[*:1])[*:2]; ACPC(1S,2S) = N[C@H]1CCC[C@@H]1C(=O)*; hArg = N=C(N)NCCCC[C@H](N)C(=O)O; β3hE = N[C@@H](CCC(=O)O)CC(=O)O; β3hD = NC(CC(=O)O)CC(=O)O; Aib = CC(C)(N)C(=O)O

Experiment [1] has as its target T1, WT human PTHR-1 (Homo sapiens, UniProt Q03431).
T1 construct: bioactivity of the resulting compound in full-length hPTHR-1 and a truncated version; expressed in transfected cells
T1 sequence (Q03431 27-593): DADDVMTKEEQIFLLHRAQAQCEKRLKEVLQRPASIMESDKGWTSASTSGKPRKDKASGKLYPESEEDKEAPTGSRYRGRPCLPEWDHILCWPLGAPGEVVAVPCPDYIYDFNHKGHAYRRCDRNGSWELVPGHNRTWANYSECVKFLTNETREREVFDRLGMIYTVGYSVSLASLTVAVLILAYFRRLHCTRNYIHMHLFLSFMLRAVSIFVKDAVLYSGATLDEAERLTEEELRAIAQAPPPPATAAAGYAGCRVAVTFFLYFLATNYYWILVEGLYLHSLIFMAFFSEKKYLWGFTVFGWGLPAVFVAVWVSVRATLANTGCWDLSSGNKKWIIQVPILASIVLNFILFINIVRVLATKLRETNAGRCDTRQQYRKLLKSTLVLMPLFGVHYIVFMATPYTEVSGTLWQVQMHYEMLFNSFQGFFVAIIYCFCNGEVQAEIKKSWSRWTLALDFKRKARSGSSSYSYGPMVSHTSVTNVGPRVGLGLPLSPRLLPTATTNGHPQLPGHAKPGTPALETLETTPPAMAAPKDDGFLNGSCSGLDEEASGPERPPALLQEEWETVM
In words: cAMP GloSensor dose-response in GP-2.3 cells expressing human PTHR-1. The format is cell-based. The settings on record: for cAMP (hPTHR-1) Max: luminescence counts per second relative to PTH(1-34); for cAMP (hPTHR-1) Max / Max: 12-16 minutes after ligand addition; for Max: Table 6, mean ± SEM; for agonist activity at hPTHR-1 (cAMP response), in words: maximum cAMP response compared with PTH(1-34). The protocol: FIGS. 8A, 8B, and 8C constitute a series of graphs depicting cAMP responses in GP-2.3 cells expressing wild-type human parathyroid hormone receptor 1 (PTHR-1-WT). […] Data are means (±SEM) of n>4 experiments, each performed in duplicate.
(§1) For cAMP dose-response assays, monolayers of confluent HEK 293 cells were pre-incubated with buffer containing d-luciferin (0.5 mM) in 96 well plates at room temperature until a stable baseline level of luminescence was established (30 min). Varying concentrations of agonist were then added, and the time course of luminescence response was recorded using a Perkin Elmer plate reader following α/β-peptide addition.

Experiment [2] has as its target T2, WT rat PTHR-1 (Rattus norvegicus, UniProt P25961).
T2 construct: expressed in transfected cells
T2 sequence (P25961 27-591): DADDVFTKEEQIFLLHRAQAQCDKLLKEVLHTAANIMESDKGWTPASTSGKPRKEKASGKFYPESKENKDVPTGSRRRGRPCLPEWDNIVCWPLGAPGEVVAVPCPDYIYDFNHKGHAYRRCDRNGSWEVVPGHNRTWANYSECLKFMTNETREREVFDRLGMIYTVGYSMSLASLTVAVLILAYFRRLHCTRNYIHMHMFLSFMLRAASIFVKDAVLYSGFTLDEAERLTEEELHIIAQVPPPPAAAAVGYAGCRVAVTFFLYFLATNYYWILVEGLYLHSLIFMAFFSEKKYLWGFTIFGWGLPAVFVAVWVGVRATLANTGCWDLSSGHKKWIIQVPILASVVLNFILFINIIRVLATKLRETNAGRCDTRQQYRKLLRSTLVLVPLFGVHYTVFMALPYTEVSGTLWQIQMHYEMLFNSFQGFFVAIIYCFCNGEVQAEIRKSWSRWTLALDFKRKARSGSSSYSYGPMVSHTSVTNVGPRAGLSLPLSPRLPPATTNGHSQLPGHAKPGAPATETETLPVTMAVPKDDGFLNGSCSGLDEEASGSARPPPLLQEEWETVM
In words: cAMP GloSensor dose-response in GR-35 cells expressing rat PTHR-1. The format is cell-based. Particulars: Table 7; GR-35 cells, 12-16 minutes after ligand addition; mean ± SEM. As for the experimental part: FIGS. 9A, 9B, and 9C constitute a series of graphs depicting cAMP responses in GR-35 cells expressing rat PTHR-1-WT. […] Data are means (±SEM) of n>4 experiments, each performed in duplicate.
as §1

Experiment [3] has as its target T3, R^0 form of human PTHR-1 (Homo sapiens, UniProt Q03431).
T3 construct: expressed in transfected cells; host or cells: COS-7
T3 sequence (Q03431 27-593): T1 sequence (Q03431 27-593)
Description: Radio-ligand competition binding to R^0 form of human PTHR-1 (COS-7 membranes, 125I-PTH(1-34) tracer, GTPγS). The source says: Data are means (±SEM) of n≥4 experiments, each performed in duplicate.

Experiment [4] addresses T4, PTHR (Homo sapiens, UniProt Q03431).
T4 construct: expressed in transfected cells
T4 sequence (Q03431 27-593): T1 sequence (Q03431 27-593)
In words: cAMP induction potency, N-terminal modifications and cyclic constraints (Tables 9, 10, 13). The format is cell-based.

As for `CC[C@H](C)[C@H](NC(=O)[C@H](CCC(=O)O)NC(=O)[C@H](CO)NC(=O)[C@@H](NC(=O)[C@@H](N)CO)C(C)C)C(=O)N[C@@H](CCC(N)=O)C(=O)N[C@@H](CC(C)C)C(=O)N[C@@H](CCSC)C(=O)N[C@@H](Cc1c[nH]cn1)C(=O)N[C@@H](CC(N)=O)C(=O)N[C@@H](CC(C)C)C(=O)NCC(=O)N[C@@H](CCCCN)C(=O)N[C@@H](Cc1c[nH]cn1)C(=O)N[C@@H](CC(C)C)C(=O)N[C@@H](CC(N)=O)C(=O)N[C@@H](CO)C(=O)N[C@@H](CCSC)C(=O)N[C@@H](CCC(=O)O)C(=O)N[C@@H](CCCNC(=N)N)C(=O)N[C@H](C(=O)N[C@@H](CCC(=O)O)C(=O)N[C@@H](Cc1c[nH]c2ccccc12)C(=O)N[C@H](CC(=O)N[C@@H](CCCNC(=N)N)C(=O)N[C@@H](CCCCN)C(=O)N[C@@H](CCCCN)C(=O)N[C@H](CC(=O)N[C@@H](CCC(N)=O)C(=O)N[C@@H](CC(=O)O)C(=O)N[C@H](C(=O)N[C@@H](CCC(N)=O)CC(=O)N[C@@H](CC(N)=O)C(=O)N[C@@H](Cc1ccccc1)C(N)=O)C(C)C)CC(C)C)CC(C)C)C(C)C` [B3], the 50% effective concentration (EC50) (commonly the concentration needed to bring the measured effect to its halfway point) in experiment [1] (Table 1, GP-2.3 cells, read-out: cAMP (hPTHR-1) EC50) was 0.11 nM. Moreover, the “cAMP (hPTHR-1) Max” value in experiment [1] (Table 1) came to 1.08. For the same compound, the Max in experiment [1] (GP-2.3 cells) is reported as 234 ± 16 luminescence counts per second × 10^−3; in experiment [2], 69 ± 78 luminescence counts per second × 10−3. Further, the “agonist activity at hPTHR-1 (cAMP response), in words” value in experiment [1] is listed as “full agonists of hPTHR-1”. Further, the IC50 (as a rule, the concentration that gives 50% inhibition) in experiment [3] (Table 1, COS-7 membranes, 125I-PTH(1-34) tracer, GTPγS, read-out: R^0 IC50, nM, Binding (hPTHR-1)) was 80 nM.

Regarding `CC[C@H](C)[C@H](NC(=O)[C@H](CCC(=O)O)NC(=O)[C@H](CO)NC(=O)[C@@H](NC(=O)[C@@H](N)CO)C(C)C)C(=O)N[C@@H](CCC(N)=O)C(=O)N[C@@H](CC(C)C)C(=O)N[C@@H](CCSC)C(=O)N[C@@H](Cc1c[nH]cn1)C(=O)N[C@@H](CC(N)=O)C(=O)N[C@@H](CC(C)C)C(=O)NCC(=O)N[C@@H](CCCCN)C(=O)N[C@@H](Cc1c[nH]cn1)C(=O)N[C@@H](CC(C)C)C(=O)N[C@@H](CC(N)=O)C(=O)N[C@@H](CO)C(=O)N[C@@H](CCSC)C(=O)N[C@@H](CCC(=O)O)C(=O)N[C@@H](CCCNC(=N)N)C(=O)N[C@H](C(=O)N[C@@H](CCC(=O)O)C(=O)N[C@@H](Cc1c[nH]c2ccccc12)C(=O)N[C@@H](CC(C)C)C(=O)N[C@@H](CCCNC(=N)N)C(=O)N[C@@H](CCCCN)CC(=O)N[C@@H](CCCCN)C(=O)N[C@@H](CC(C)C)C(=O)N[C@@H](CCC(N)=O)C(=O)N[C@@H](CC(=O)O)CC(=O)N[C@H](C(=O)N[C@@H](Cc1c[nH]cn1)C(=O)N[C@@H](CC(N)=O)C(=O)N[C@H](CC(N)=O)Cc1ccccc1)C(C)C)C(C)C` [D3], the “cAMP (hPTHR-1) Max” value in experiment [1] (Table 1) stood at 1.04. The Max was 226 ± 15 luminescence counts per second × 10^−3 in experiment [1] (GP-2.3 cells) and 65 ± 62 luminescence counts per second × 10−3 in experiment [2]. Also, the “agonist activity at hPTHR-1 (cAMP response), in words” value in experiment [1] is reported as “full agonists of hPTHR-1”. Besides, in experiment [3] (compared with PTH(1-34)), the “affinity for the R^0 state of hPTHR-1, in words” value is reported as “matches PTH(1-34)”.

On to `CSCC[C@H](NC(=O)[C@H]1CCC[C@@H]1NC(=O)[C@H](CCC(N)=O)NC(=O)[C@H]1CCC[C@@H]1NC(=O)[C@H](CCC(=O)O)NC(=O)C(C)(C)NC(=O)[C@@H](NC(=O)[C@H]1CCC[C@@H]1N)C(C)C)C(=O)N[C@@H](Cc1c[nH]cn1)C(=O)N[C@@H](CCC(N)=O)C(=O)N[C@@H](CCCCNC(=N)N)C(=O)N[C@@H](C)C(=O)N[C@@H](CCCCN)C(=O)N[C@H]1CCC[C@@H]1C(=O)N[C@@H](CC(C)C)C(=O)N[C@@H](CC(N)=O)C(=O)N[C@@H](CO)C(=O)N[C@H]1CCC[C@@H]1C(=O)N[C@@H](CCCNC(=N)N)C(=O)N[C@@H](CCCNC(=N)N)C(=O)N[C@H](C(=O)N[C@@H](CCC(=O)O)CC(=O)N[C@@H](Cc1c[nH]c2ccccc12)C(=O)N[C@@H](CC(C)C)C(=O)N[C@@H](CCCNC(=N)N)C(=O)N[C@H]1CNC[C@@H]1C(=O)N[C@@H](CCCCN)C(=O)N[C@@H](CC(C)C)C(=O)N[C@@H](CCC(N)=O)C(=O)N[C@@H](CC(=O)O)CC(=O)N[C@H](C(=O)N[C@@H](Cc1c[nH]cn1)C(=O)N[C@@H](CC(N)=O)C(=O)N[C@H]1CCC[C@@H]1C(N)=O)C(C)C)C(C)C` [M-X1,5,7-CycD6, HXVUEXQXMHQ^hRAKXLNSXRRVEWLRZKLQDVHNX-NH2] ({ACPC(1S,2S)}-V[Aib]E[X12]Q[X12]MHQ[hArg]AK[X12]LNS[X12]RRV[β3hE]WLR[X13]KLQ[β3hD]VHN-{NH(1S,2S-2-CONH2-cPent)}; N-terminus assumed), for which the “Fold PTH” value in experiment [4] (Table 10) worked out at 3.8.

Consider `CC[C@H](C)[C@H](NC(=O)[C@H](CCC(=O)O)NC(=O)[C@H](CO)NC(=O)[C@@H](NC(=O)[C@@H](N)CO)C(C)C)C(=O)N[C@@H](CCC(N)=O)C(=O)N[C@@H](CC(C)C)C(=O)N[C@@H](CCSC)C(=O)N[C@@H](Cc1c[nH]cn1)C(=O)N[C@@H](CC(N)=O)C(=O)N[C@@H](CC(C)C)C(=O)NCC(=O)N[C@@H](CCCCN)C(=O)N[C@H]1CCC[C@@H]1C(=O)N[C@@H](CC(C)C)C(=O)N[C@@H](CC(N)=O)C(=O)N[C@@H](CO)C(=O)N[C@H]1CCC[C@@H]1C(=O)N[C@@H](CCC(=O)O)C(=O)N[C@@H](CCCNC(=N)N)C(=O)N[C@H](C(=O)N[C@@H](CCC(=O)O)CC(=O)N[C@@H](Cc1c[nH]c2ccccc12)C(=O)N[C@@H](CC(C)C)C(=O)N[C@@H](CCCNC(=N)N)C(=O)N[C@H]1CNC[C@@H]1C(=O)N[C@@H](CCCCN)C(=O)N[C@@H](CC(C)C)C(=O)N[C@@H](CCC(N)=O)C(=O)N[C@@H](CC(=O)O)CC(=O)N[C@H](C(=O)N[C@@H](Cc1c[nH]cn1)C(=O)N[C@@H](CC(N)=O)C(=O)N[C@H]1CCC[C@@H]1C(N)=O)C(C)C)C(C)C` [cycD6, SVSEIQLMHNLGKXLNSXERVEWLRZKLQDVHNX-NH2] (H-SVSEIQLMHNLGK[X12]LNS[X12]ERV[β3hE]WLR[X13]KLQ[β3hD]VHN-{NH(1S,2S-2-CONH2-cPent)}; N-terminus assumed), for which the “Fold PTH” value in experiment [4] (Table 9) is reported as 1.3. In addition, in experiment [4] (Table 9, read-out: EC50, nM (cAMP induction potency)), the EC50 is 0.1 ± 0.01 nM.

In the case of “AVAEIQXMHQ^hRAKXLNSXRRVEWLRZKLQDVHNX-NH2 [M-cycD6]”, in experiment [4] (Table 10), the “Fold PTH” value was determined as 4.0.

For “AVAEIQXMHQ^hRAKXLNSXRRVZWLRZKLQXVHNX-NH2 [M-FcycD6]”, the “Fold PTH” value in experiment [4] (Table 10) was 6.3.

In the case of “XVSEIQXMHNLGKWLNSMERVEWLRKKLQDVHNF-NH2 [D6_ACPC(1,7)]”, the “Fold PTH” value in experiment [4] (Table 9) turned out to be 22.6.

With “XVSEXQXMHNLGKWLNSMERVEWLRKKLQDVHNF-NH2 [D6_ACPC(1,5,7)]”, in experiment [4] (Table 9), the “Fold PTH” value is recorded as 2,045.

With “XVUEXQXMHQ^hRAKWLNSMRRVEWLRKKLQDVHNF.-NH2 [M-X1,5,7-D6]”, the “Fold PTH” value in experiment [4] (Table 10) stood at 9.7.
